Test results: patent US20100256090A1, “Alginic Acid with Low Molecular Weight, Its Salts, Uses, Preparative Methods, Pharmaceutical Compositions and Foods” (priority 2007, published 2010)

Experiments:
hypertension subjects [1] = assay: Clinical Example 1: blood pressure of hypertension subjects after oral granule or enteric capsule; type: in vivo, human
Description: This clinical example explains the effects of the low molecular weight alginate salts of the present invention and the effects of the low molecular weight alginate salts of the comparative example in improving hypertension.
Male and female hypertension subjects without other disease were selected, 360 for each sex, aged from 38 to 62 with an average age of 48, whose systolic blood pressure (SBP)(s) were from 155 to 165 mmHg and diastolic blood pressure (DBP)(s) were from 100 to 125 mmHg, said SBP(s) and DBP(s) were measured in resting state. The subjects were randomly grouped, 30 subjects for each group, and orally took granule of low molecular weight potassium alginate or enteric capsule of alginic acid with low molecular weight 1 to 3 times per day with a daily dose of 50 to 200 mg/Kg according to Table 2, and blood pressures before and 24 hours after administration were measured. The granule of low molecular weight potassium alginate was prepared in the following way: potassium alginate was prepared using the alginic acid with low molecular weight according to examples 1 to 10 or comparative example 1, and then the potassium alginate was prepared into granule according to the method of example 11 or comparative example 2. The enteric capsule of alginic acid with low molecular weight was prepared according to the method of example 11 or comparative example 2. Criterion of therapeutical effect made by China Hypertension League was referred to, that is, the systolic blood pressure reduces by more than 15 mmHg and the diastolic blood pressure reduces by more than 10 mmHg 24 hours after the administration.

[2] = test system: Male Wister rats feed with high lipid diet; assay: Clinical Example 6: prevention of blood lipid increase in rats on high lipid diet; type: in vivo; conditions: conclusion from Table 7, one month
Description: This clinical example explains the effects of the low molecular weight alginate salt of the present invention and the effects of the low molecular weight alginate salt of the comparative example in preventing increase of blood lipid when they are added into high lipid diet.
Male Wister rats weighted from 180 to 200 g were randomly divided into 13 groups, 8 for each group, wherein one group was designated as a blank group and feed with normal diet, one group was designated as a control group and feed with a high lipid diet comprising 1 wt % of cholesterol, 0.5 wt % of cholate, 10 wt % of lard oil and 10 wt % of yolk, and the remaining groups were feed with the high lipid diet and were given through stomach the potassium alginate aqueous solution according to the present invention for three times every day such that the daily intake of potassium alginate for each rat reached […]. After one month of feeding, lipoprotein in serum, total cholesterol (TC), triglyeride (TG), high density lipoprotein cholesterol (HDL-C) and low density lipoprotein cholesterol as well as very low density lipoprotein cholesterol [(LDL+VLDL)-C] were measured using enzymatic methods commonly used in the clinic (for example, CHOD-PAP to measure TC and GPO-PAP to measure TG), and the results are shown in Table 7.

hypertension subjects [3] = assay: Clinical Example 7: blood pressure of hypertension subjects taking milk powder with potassium alginate; type: in vivo, human; conditions: conclusion from Table 8, one month use of milk powder
Description: This clinical example explains the effects of the low molecular weight alginate salt of the present invention and the effects of the low molecular weight alginate salt of the comparative example in reducing hypertension when they are added into milk powder.
Fresh milk containing 8 wt % of solid content was added with potassium alginate until the content of the potassium alginate reached 25 wt % in term of the solid content weight, the milk was then spray dried at 150° C. to obtain a milk powder.
Male and female hypertension subjects without other disease were selected, 48 for each sex, aged from 40 to 65 with an average age of 54, whose SBP(s) were from 145 to 155 mmHg and DBP(s) were from 120 to 125 mmHg, said SBP(s) and DBP(s) were measured in resting state. The subjects were randomly grouped, 8 subjects for each group, and took the milk power after infusing it, wherein the daily dose of potassium alginate reached 10 to 30 mg/Kg and the milk power was taken continuously for one month.

Row | Compound | effective rate (hypertension subjects [1]; effective: SBP reduces by more than 15 mmHg and DBP by more than 10 mmHg 24 hours after administration, oral) [%] | average SBP before administration (hypertension subjects [1]; first number of SBP/DBP, baseline, resting state, hypertension subjects, 30 per group) [mmHg] | average SBP after administration 24 h (hypertension subjects [1]; first number of SBP/DBP, oral, 1 to 3 times per day, daily dose 50 to 200 mg/Kg per Table 2, 24 hours after administration) [mmHg] | average DBP before administration (hypertension subjects [1]; second number of SBP/DBP, baseline, resting state, hypertension subjects, 30 per group) [mmHg] | average DBP after administration 24 h (hypertension subjects [1]; second number of SBP/DBP, oral, 1 to 3 times per day, daily dose 50 to 200 mg/Kg per Table 2, 24 hours after administration) [mmHg] | blood lipid increase preventing effect (in words) [2] | blood pressure reducing effect (in words) (hypertension subjects [3])
1 | NS(=O)(=O)c1cc2c(cc1Cl)NCNS2(=O)=O [Positive Control, Hydrochlorothiazide] | 70.1 | 162 | 121 | 118 | 95 | – | –
2 | alginic acid with low molecular weight [Comparative Example 1] | – | – | – | – | – | inferior | inferior
